Assay results: patent US11293024B2, “Antisense antibacterial compounds and methods” (priority 2014, dated 2022)

Tests used:
[1] = tested on: existing P. aeruginosa PAO1 biofilm; test: Biofilm reduction in MBEC plate (crystal violet); assay type: cell-based, Pseudomonas aeruginosa; settings: at 10, 5, 2.5, and 1 μM; 2 μg/mL PMBN; 48 hour biofilm
Experimental: P. aeruginosa PAO1 (5×10^5 cfu/mL) was grown in an MBEC plate for 24 hours. At 24 hours, the pegs were moved to a new 96-well plate containing fresh MHII media and either scrambled, RpsJ, or AcpP PPMO at the indicated concentrations. All wells containing PPMOs (including Scrambled) contained 2 μg/mL of PMBN. The pegs were again moved to new plates with or without PPMOs at 32 and 40 hours. Pegs were processed for crystal violet or visualized with microscopy at 48 hours. […] FIGS. 7B-7D: Spinning Disk confocal microscopy images of 48 hour biofilm treated with (FIG. 7B) 10 μM Scr PPMO #42, (FIG. 7C) 2.5 μM AcpP PPMO #35, (FIG. 7D) 10 μM AcpP PPMO #35. Green channel is PAO1 GFP; Red channel is biofilm stained with 200 μg/mL of Concanavalin A, Alexafluor 647 conjugate.
Pseudomonas aeruginosa Biofilm Reduction in MBEC Plate Protocol
• 1. 10 mL of MH is inoculated with a single colony and incubated at 37° C. and ˜250 rpm for about 5 hours. • 2. The sample is centrifuged for 10 minutes at ˜4000 rpm at 4° C., the supernatant decanted and the pellet resuspended in 10 mL of 150 mM NaCl or PBS. This step is repeated to wash the pellet 3 times. • 3. […] The OD600 of the sample is taken and cfu/mL is calculated. […]
1. […] The final OD570 of the 10× dilution of solution should be approximately 0.500 absorbance. […]
2. OD reading: The OD570 for the 96-well plate from step 1e is determined. […]

P. aeruginosa PAO1 = test: Synergy assay with Piperacillin Tazobactam; assay type: cell-based, Pseudomonas aeruginosa; settings: PPMO 32 to 0.5 μM; 2 μg/mL PMBN; 18 hours at 37° C.
Experimental: (§1) A synergy assay was performed with Piperacillin Tazobactam and AcpP PPMO #35 in P. aeruginosa PAO1. 1×10^6 cfu/mL of PAO1 was inoculated into Mueller Hinton II media in an 96-well plate in the presence of 2 μs/mL PMBN. Piperacillin Tazobactam (PT) was serial diluted by half dilutions in the lateral direction from 128 to 0.124 μg/mL. AcpP PPMO #35 was vertically diluted in the same manner from 32 to 0.5 μM. The 96-well plate was then incubated for 18 hours at 37° C.
as §1, with “μg/mL” for “μs/mL”

For “PPMO #35: AcpP PMO CTCATACCTTG, 5′ (RXR)4XB CPP, 3′ H”, which “reduction of existing biofilm (crystal violet)” value [1] is on record?
Its value is “statistically significant reduction of biofilm”.

What about the “MIC of Piperacillin Tazobactam in combination with PPMO” value (P. aeruginosa PAO1) of the same substance?
The value was “decreasing MIC values as the PPMO concentration increased”.
